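Interpolation was linear, between the two tested concentrations surrounding the appropriate level; five concentrations were tested over 48 hours in 96-well plates. Here, GI50 denotes the concentration required for 50% inhibition of growth.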 The source made the active and inactive calls. Cut-off read from the data, not from the text of the source: active = GI50 up to about 1.1 µM and inactive = higher.
Columns and labels:
Assay in all cases: NCI tumour cell line growth inhibition, 48 h
A549 = test system: A549
ACHN = test system: ACHN
HCT-15 = test system: HCT-15
HOP-92 = test system: HOP-92
K562 = test system: K562
KM12 = test system: KM12
LOX IMVI = test system: LOX IMVI
MOLT-4 = test system: MOLT-4
NCI-H226 = test system: NCI-H226
NCI-H522 = test system: NCI-H522
OVCAR-8 = test system: OVCAR-8
SF-268 = test system: SF-268
SK-MEL-28 = test system: SK-MEL-28
SNB-75 = test system: SNB-75
U-251 = test system: U-251
CAKI-1 = test system: CAKI-1

SMILES | GI50 (A549) | GI50 (ACHN) | GI50 (HCT-15) [µM] | GI50 (HOP-92) | GI50 (K562) | GI50 (KM12) | GI50 (LOX IMVI) | GI50 (MOLT-4) | GI50 (NCI-H226) | GI50 (NCI-H522) | GI50 (OVCAR-8) | GI50 (SF-268) | GI50 (SK-MEL-28) | GI50 (SNB-75) | GI50 (U-251) | GI50 (CAKI-1)
C/C(=N\NC(=O)c1ccccc1O)c1c(O)cc(C)oc1=O | 33 µM (inactive) | 45 µM (inactive) | 91.2 | 10.4 µM (inactive) | 72.6 µM (inactive) | > 100 µM (inactive) | 76 µM (inactive) | 67.5 µM (inactive) | 34.3 µM (inactive) | 32.7 µM (inactive) | 68.2 µM (inactive) | 49.4 µM (inactive) | > 100 µM (inactive) | 20.2 µM (inactive) | 37.7 µM (inactive) | 
Cc1cccc(C)c1N1C(=O)C(=O)C(c2nc3ccccc3s2)/C(=N/NC(=O)NN)C1=O (centres undefined) | > 100 µM (inactive) | > 100 µM (inactive) | > 100 | > 100 µM (inactive) |  | > 100 µM (inactive) |  | > 100 µM (inactive) | > 100 µM (inactive) | > 100 µM (inactive) | > 100 µM (inactive) | > 100 µM (inactive) | > 100 µM (inactive) | > 100 µM (inactive) | > 100 µM (inactive) | > 100 µM (inactive)
COC(=O)C1=CC2C(=O)OC1C1C(=O)NC(=O)C21 (centres undefined) | > 100 µM (inactive) | > 100 µM (inactive) |  | > 100 µM (inactive) | > 100 µM (inactive) | > 100 µM (inactive) | > 100 µM (inactive) | > 100 µM (inactive) |  | > 100 µM (inactive) | > 100 µM (inactive) | > 100 µM (inactive) | > 100 µM (inactive) | 74.6 µM (inactive) | > 100 µM (inactive) | > 100 µM (inactive)
c1ccc(CCCC2Sc3cccc4cccc(c34)S2)cc1 | > 100 µM (inactive) | > 100 µM (inactive) | > 100 | > 100 µM (inactive) | > 100 µM (inactive) | > 100 µM (inactive) | > 100 µM (inactive) |  | 88.3 µM (inactive) | 92.7 µM (inactive) | > 100 µM (inactive) | > 100 µM (inactive) | > 100 µM (inactive) | > 100 µM (inactive) | > 100 µM (inactive) | > 100 µM (inactive)
Cn1c(=O)c2c3oc(=O)cc(O)c3c(=O)n3c4ccccc4n(c1=O)c23 | 45.7 µM (inactive) | 38 µM (inactive) | 27.8 | 33.2 µM (inactive) | 20.3 µM (inactive) | 35.6 µM (inactive) | 15.8 µM (inactive) | 33.3 µM (inactive) |  |  | 40.9 µM (inactive) | 47.6 µM (inactive) |  | 32.2 µM (inactive) | 41.4 µM (inactive) | 32.3 µM (inactive)
O=c1nc(NC(c2ccccc2)(c2ccccc2)c2ccccc2)ccn1CCO | 41.1 µM (inactive) | 48.5 µM (inactive) | 63.5 | 41.4 µM (inactive) | 58.7 µM (inactive) | 60.3 µM (inactive) | 75.9 µM (inactive) | 29.9 µM (inactive) | > 100 µM (inactive) | 51.5 µM (inactive) | > 100 µM (inactive) | 66.4 µM (inactive) | > 100 µM (inactive) | 40.8 µM (inactive) | > 100 µM (inactive) | 
O=C(O)CCSC(=O)Nc1ccccc1Cl | > 100 µM (inactive) | > 100 µM (inactive) | > 100 | > 100 µM (inactive) | > 100 µM (inactive) | 51.2 µM (inactive) | > 100 µM (inactive) | > 100 µM (inactive) | > 100 µM (inactive) |  | > 100 µM (inactive) | > 100 µM (inactive) | > 100 µM (inactive) | > 100 µM (inactive) | > 100 µM (inactive) | > 100 µM (inactive)
Brc1ccc(C[N+]23CN4CN(CN(C4)C2)C3)cc1 | 40.4 µM (inactive) | 44.6 µM (inactive) | 24.2 |  | 25.4 µM (inactive) | > 100 µM (inactive) | 18.8 µM (inactive) | 20.5 µM (inactive) |  | 17.1 µM (inactive) | 28.3 µM (inactive) | 40.2 µM (inactive) | 31.3 µM (inactive) | > 100 µM (inactive) | 69.3 µM (inactive) | 
CC1=C(c2cc(C(=O)Nc3nccs3)nc(NC#N)n2)Sc2ccccc2N1 | > 100 µM (inactive) | > 100 µM (inactive) | 65.3 | > 100 µM (inactive) | > 100 µM (inactive) | > 100 µM (inactive) |  | > 100 µM (inactive) | > 100 µM (inactive) | > 100 µM (inactive) | > 100 µM (inactive) | > 100 µM (inactive) | > 100 µM (inactive) | 87.3 µM (inactive) | > 100 µM (inactive) | > 100 µM (inactive)
CC1C2=C(CCCC2=O)N(c2ccc(Cl)cc2)C2=C1C(=O)CCC2 | 88.5 µM (inactive) | 91.2 µM (inactive) | 70 | 42.3 µM (inactive) | 29.9 µM (inactive) | > 100 µM (inactive) | 68.5 µM (inactive) | 20.3 µM (inactive) | > 100 µM (inactive) |  | > 100 µM (inactive) | > 100 µM (inactive) | > 100 µM (inactive) | 16.3 µM (inactive) | 54.7 µM (inactive) | > 100 µM (inactive)
